Measurements reported in publication PMC10912632, “Racemization of the substrate and product by serine palmitoyltransferase from Sphingobacterium multivorum yields two enantiomers of the product from D-serine” (The Journal of Biological Chemistry, 2024).
Values joined by “and” are separate entries in the source; they are usually repeats but may differ in a detail not shown here. Equal entries are not always repeated. Where two headings read alike, the source gives them in different places. Marks after values point to notes of the source that are not given here.

What was measured:
[1] = molecular target: T1, Sphingobacterium multivorum SPT (Sphingobacterium multivorum, UniProt A7BFV6); design: method as in PMID 23957439; details: 1 mM palmitoyl-CoA; cited from earlier work
T1 construct: harboring the plasmid expressing the full-length SPT; made in house; host or cells: Escherichia coli BL21 (DE3) pLysS

[2] = molecular target: T1, Sphingobacterium multivorum SPT; design: method as in PMID 23957439; details: spectroscopic titration; cited from earlier work
[3] = molecular target: T1, Sphingobacterium multivorum SPT; experiment: Serine racemase assay of SPT (fluorescence derivatization, reverse-phase HPLC); assay type: biochemical; details: 1 mM D-serine, 47 μM SPT, 37 °C, no palmitoyl-CoA
Procedure: In order to verify the possibility of conversion between D-serine and L-serine, the serine racemase activity of SPT in the absence of palmitoyl-CoA was examined by the combination of fluorescence labeling and reverse-phase HPLC (Fig. 4).
One millimolar L-serine or D-serine was incubated with or without 47 μM SPT at 37 °C for 24 h. […] The reaction mixture containing 1 mM serine and 47 μM SPT was incubated at 37 °C for 1 to 24 h. […] The reaction mixture contained 1 mM serine and either or both of 1 mM PLP and 47 μM SPT.
Serine racemase assay of SPT was performed by determining the amount of each antipodal serine derivative formed from D-serine or L-serine as previously reported with some modifications ([48]). After D/L-serine was derivatized to fluorescent diastereomer, the enantioselective detection of serine was performed on an HPLC system with a Multi lambda Fluorescence Detector (Waters Corporation). The reaction was carried out at 37 °C for 1 to 24 h in a reaction mixture (100 μl) containing 100 mM Tris/HCl buffer (pH 7.5), 1 mM D/L-serine, and 47 μM SPT with or without 1 mM PLP. […] For fluorescence detection, the excitation and emission wavelengths were 350 nm and 450 nm, respectively. […]

[4] = molecular target: T1, Sphingobacterium multivorum SPT; experiment: TLC/autoradiography analysis of KDS formation; assay type: biochemical; details: 500 mM serine, 1 mM [1-14C]-palmitoyl-CoA, 100 μM SPT, 37 °C, 60 min
Description: We previously reported that the KDS formation from D-serine was not detected under physiological assay conditions using S. paucimobilis SPT ([15], [47]). […] Each reaction product was ninhydrin-positive with the specific color and the Rf value, which corresponded to those of a commercial authentic KDS on the TLC plate (Fig. 1A, lanes 2 and 4). […] Such radioactive reaction products were not detected under the reaction condition lacking the amino acid substrate or SPT. The structure of the reaction product derived from each serine enantiomer was confirmed by HPLC/triple quadrupole/linear ion trap mass spectrometry using a commercially available authentic KDS as the standard (Fig. 1C).
Figure 1 Formation of KDS from L-serine and D-serine by the Sphingobacterium multivorum SPT.A, image of the TLC analysis of KDS visualized with ninhydrin reagent: lane 1, extract of the reaction mixture without the amino acid substrate; lane 2, extract of the reaction mixture with L-serine; lane 3, commercial authentic KDS (L-serine–derived, (2S)-KDS); lane 4, extract of the reaction mixture with D-serine; lane 5, extract of the reaction mixture without SPT. The complete reaction mixture contained 500 mM L-/D-serine, 1 mM palmitoyl-CoA, and 100 μM SPT and was incubated at 37 °C for 60 min. […] Radioactivity was incorporated to the reaction product from the substrate [1-^14C]-palmitoyl-CoA. […]

[5] = molecular target: T1, Sphingobacterium multivorum SPT; experiment: Spectroscopic titration of SPT with amino acids (422 nm absorption, external aldimine formation); assay type: binding; details: 10 μM SPT
Procedure: (§1) Dependency of the reaction rates on amino acid concentrations under the condition of 1 mM palmitoyl-CoA was examined (Table 1). Each LCB product was quantified by the fluorescence intensity based on the standard curve obtained by using the corresponding authentic compound ([23]). The value of apparent catalytic efficiency ( kcatapp/Kmapp ) for D-serine was 0. 0013 min^–1 mM^–1 and was much smaller than that for L-serine ( kcatapp/Kmapp = 3.6 min^–1 mM^–1). Therefore, the KDS production by SPT from D-serine is considered to be negligible at the physiological concentration of D-serine. Next, binding of D-serine to the S. multivorum SPT was examined by spectroscopic titration. When SPT was incubated with D-serine, spectral changes corresponding to the external aldimine formation between PLP and the amino acid were observed (Supporting information).
Figure S1. Spectroscopic titration of the S. multivorum SPT with D-serine or α-methyl-D-serine. (A) Absorption spectra of SPT (10 μM) in the presence of 0, 2.0, 5.0, 9.9, 15, 20, 29, 38, and 48 mM D-serine (lines 1–9, respectively).
(B) Absorption spectra of SPT (10 μM) in the presence of 0, 3.0, 6.0, 9.9, 20, 34, 52, 74, and 99 mM α-methyl-D-serine (lines 1–9, respectively).
Determination of dissociation constants (Kd) for amino acids.
The titration assay was carried out as previously reported (1). The changes of the 422 nm-absorption intensities of SPT upon addition of amino acids were plotted against the final concentrations of the amino acids, and the Kd values were calculated by fitting to a hyperbolic saturation curve using Igor Pro 6.37. software (Wave Matrix Inc., Lake Oswego, Oregon, […]
United States). […]

[6] = molecular target: T1, Sphingobacterium multivorum SPT; experiment: Steady-state kinetics of LCB (KDS) formation by SPT; assay type: biochemical; details: 1 mM palmitoyl-CoA
Procedure: as §1
The assay was performed as previously reported ([23]). For qualitative analysis, 500 mM of L-serine or D-serine was incubated with 1 mM palmitoyl-CoA and 100 μM SPT in 100 μl of 100 mM potassium phosphate, pH 7.5, at 37 °C for 60 min. [1-^14C] palmitoyl-CoA (20 kBq/μmol) was supplemented into the above reaction mixture as the tracer. The reactions were terminated by addition of the equal volume of 2 N ammonia. Lipids were extracted by successive addition and mixing of 750 μl of chloroform/methanol (1:2, v/v), 250 μl of chloroform, and 250 μl of 1% KCl. Phases were separated by centrifugation, and the organic phase was recovered. […] For the quantitative analysis, the UV-fluorescence intensities of the reaction products on TLC plates were visualized by a Fusion chemiluminescence imaging system using a UV-light box and analyzed by a FUSION Capt software (Vilber Lourmat).
Steady-state kinetic parameters were determined by varying the concentrations of D-serine in the presence of 1 mM palmitoyl-CoA in 100 μl of 100 mM potassium phosphate, pH 7.5, at 37 °C. […] The reaction termination, lipid extraction, TLC analysis, and quantification of the reaction products on TLC plates were described above. […]

[7] = molecular target: T1, Sphingobacterium multivorum SPT; experiment: Chiral HPLC of 7-methoxycoumarin-labeled KDS enantiomers after SPT reaction or incubation; assay type: biochemical; details: 1.3 mM KDS incubated with 230 μM SPT, 37 °C, 120 min
Description: KDS has a chiral center at the C2 position to which hydrogen, hydroxymethyl, amino, and acyl groups are attached. In the present study, it was necessary to know which optical isomer, (2S)- or (2R)-KDS, was formed from D-serine. In order to detect KDS enantiomers, we developed a new method in which each enantiomer of 7-methoxycoumarin-labeled KDS was separated and quantified by chiral HPLC (Fig. 2A). First, the standard compounds (2S)-2-amino-1-hydroxyoctadecan-3-one (L-serine–type (2S)-KDS) and (2R)-2-amino-1-hydroxyoctadecan-3-one (D-serine–type (2R)-KDS) were chemically synthesized (Supporting information). Next, the conditions for fluorescence labeling and HPLC were examined using these authentic compounds; the successful separation of KDS enantiomers was achieved by 7-methoxycoumarin labeling of the amino group of KDS (Fig. 2B, lines 1–3). The labeled (2S)-KDS and (2R)-KDS were eluted at 7.7 and 8.9 min, respectively, with the calculated separation factor of 1.3 (Fig. 2B, line 3). When the SPT reaction product derived from L-serine was analyzed, two fluorescence peaks were detected (Fig. 2B, line 4). […] Similarly, for the SPT reaction product derived from D-serine, two fluorescence peaks corresponding to 7-methoxycoumarin-labeled (2S)-KDS and 7-methoxycoumarin-labeled (2R)-KDS were detected (Fig. 2B, line 5). […]

T1 sequence (A7BFV6 whole entry): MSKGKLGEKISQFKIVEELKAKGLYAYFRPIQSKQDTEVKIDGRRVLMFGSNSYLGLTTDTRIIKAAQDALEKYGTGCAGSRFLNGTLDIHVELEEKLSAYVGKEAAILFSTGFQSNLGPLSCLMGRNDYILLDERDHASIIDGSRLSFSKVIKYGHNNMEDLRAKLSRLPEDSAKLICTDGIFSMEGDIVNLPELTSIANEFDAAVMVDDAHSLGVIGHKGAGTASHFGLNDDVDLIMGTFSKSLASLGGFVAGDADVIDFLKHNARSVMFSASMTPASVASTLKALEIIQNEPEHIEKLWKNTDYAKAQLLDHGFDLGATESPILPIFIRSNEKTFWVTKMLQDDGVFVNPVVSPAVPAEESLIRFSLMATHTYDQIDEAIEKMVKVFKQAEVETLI

C[C@H](N)C(=O)O [L-alanine]
Kmapp [1]: 110 ± 9.0 ^b mM | kcatapp [1]: 0.42 ± 0.011 ^b min^–1 | kcatapp/Kmapp (apparent catalytic efficiency) [1]: 0.0037 ^b min^–1 mM^–1

NCC(=O)O [glycine]
Kmapp [1]: 77 ± 8.1 ^b mM | kcatapp [1]: 0.008 ± 0.002 ^b min^–1 | kcatapp/Kmapp (apparent catalytic efficiency) [1]: 0.0001 ^b min^–1 mM^–1 | Kd [2]: 71 ± 5.5 mM

N[C@@H](CCO)C(=O)O [L-homoserine]
Kmapp [1]: 82 ± 14 ^b mM | kcatapp [1]: 4.5 ± 0.28 ^b min^–1 | kcatapp/Kmapp (apparent catalytic efficiency) [1]: 0.055 ^b min^–1 mM^–1 | Kd [2]: 3.6 ± 0.2 mM

N[C@H](CO)C(=O)O [D-serine]
formation rate of L-serine from D-serine (racemization) [3]: 0.0020 min^–1 | formation of KDS reaction product [4]: the reaction product was formed | Kd [5]: 11 ± 1.8 mM | kcatapp/Kmapp (apparent catalytic efficiency) [6]: 0.0013 min^–1 mM^–1 | Kmapp ([6]; 10 μM SPT, pH 7.5, 37 °C): 237.7 ± 44.3 mM | kcatapp ([6]; 10 μM SPT, pH 7.5, 37 °C): 0.31 ± 0.02 min^–1

CCCCCCCCCCCCCCCC(=O)[C@@H](N)CO [(2S)-KDS, (2S)-2-amino-1-hydroxyoctadecan-3-one]
SPT-dependent racemization of KDS enantiomer [7]: the racemized product was formed in each case, albeit in a smaller amount

C[C@](N)(CO)C(=O)O [α-methyl-L-serine, reference compound]
Kd [5]: 8.3 ± 1.8 mM

C[C@@](N)(CO)C(=O)O [α-methyl-D-serine, reference compound]
Kd [5]: 27 ± 2.5 mM

N[C@@H](CO)C(=O)O [L-serine]
Kmapp [1]: 3.6 ± 0.87 ^b mM | kcatapp [1]: 13 ± 1.0 ^b min^–1 | kcatapp/Kmapp (apparent catalytic efficiency) [1]: 3.6 min^–1 mM^–1 and 3.6 ^b min^–1 mM^–1 | formation of KDS reaction product [4]: the reaction product was formed

CCCCCCCCCCCCCCCC(=O)[C@H](N)CO [(2R)-KDS, (2R)-2-amino-1-hydroxyoctadecan-3-one]
SPT-dependent racemization of KDS enantiomer [7]: the racemized product was formed in each case, albeit in a smaller amount

N[C@H](CCO)C(=O)O [D-homoserine]
Kd [5]: 90 ± 8 mM
